Data: PMC10700596 (Nature Communications, 2023)
“And” between values parts separate entries of the source, which are not always exact repeats. Identical values can stand only once. Like-named read-outs stand apart in the source and are kept apart here.

Assay: in vivo
Type: in vivo, mice
Settings: mice; for concentration at 5 min / concentration at 15 min / concentration at 30 min / concentration at 60 min / concentration at 120 min / concentration at 240 min / concentration at 360 min / concentration at 480 min / concentration at 1440 min / CSF concentration, Final (individual sample) / Brain concentration, Final (individual sample) / Plasma concentration, Final (individual sample): 10 mg/kg, IP 10 mg/kg

concentration at 5 min (male, CD-1, mouse, CSF, ip, CSF, 5 min, mean of 3, read-out: CSF concentration C (mean)): 9.11 ng/mL
concentration at 15 min (male, CD-1, mouse, CSF, ip, CSF, 15 min, individual animals, read-out: CSF concentration, Final (individual sample)): 1.21 ng/mL
concentration at 15 min (male, CD-1, mouse, CSF, ip, CSF, 15 min, mean of 3, read-out: CSF concentration C (mean)): 1.7 ng/mL
concentration at 30 min (male, CD-1, mouse, CSF, ip, CSF, 30 min, mean of 3, read-out: CSF concentration C (mean)): 3.94 ng/mL
concentration at 60 min (male, CD-1, mouse, CSF, ip, CSF, 60 min, mean of 3, read-out: CSF concentration C (mean)): 0.35 ng/mL
concentration at 120 min (male, CD-1, mouse, CSF, ip, CSF, 120 min, mean of 3, read-out: CSF concentration C (mean)): 1.36 ng/mL
concentration at 240 min (male, CD-1, mouse, CSF, ip, CSF, 240 min, individual animals, read-out: CSF concentration, Final (individual sample)): 0 ng/mL
concentration at 240 min (male, CD-1, mouse, CSF, ip, CSF, 240 min, mean of 3, read-out: CSF concentration C (mean)): 0 ng/mL
concentration at 360 min (male, CD-1, mouse, CSF, ip, CSF, 360 min, individual animals, read-out: CSF concentration, Final (individual sample)): 0 ng/mL
concentration at 360 min (male, CD-1, mouse, CSF, ip, CSF, 360 min, mean of 3, read-out: CSF concentration C (mean)): 0 ng/mL
concentration at 480 min (male, CD-1, mouse, CSF, ip, CSF, 480 min, mean of 3, read-out: CSF concentration C (mean)): 0.4 ng/mL
concentration at 1440 min (male, CD-1, mouse, CSF, ip, CSF, individual animals, read-out: CSF concentration, Final (individual sample)): 0 ng/mL
concentration at 1440 min (male, CD-1, mouse, CSF, ip, CSF, mean of 3, read-out: CSF concentration C (mean)): 0 ng/mL
concentration at 5 min (male, CD-1, mouse, brain, ip, brain, 5 min, individual animals, read-out: Brain concentration, Final (individual sample)): 20.4 ng/g
concentration at 5 min (male, CD-1, mouse, brain, ip, brain, 5 min, mean of 3, read-out: Brain concentration C (mean)): 21.9 ng/g
concentration at 15 min (male, CD-1, mouse, brain, ip, brain, 15 min, mean of 3, read-out: Brain concentration C (mean)): 14.9 ng/g
concentration at 30 min (male, CD-1, mouse, brain, ip, brain, 30 min, individual animals, read-out: Brain concentration, Final (individual sample)): 11.3 ng/g
concentration at 30 min (male, CD-1, mouse, brain, ip, brain, 30 min, mean of 3, read-out: Brain concentration C (mean)): 11.1 ng/g
concentration at 60 min (male, CD-1, mouse, brain, ip, brain, 60 min, mean of 3, read-out: Brain concentration C (mean)): 6.66 ng/g
concentration at 120 min (male, CD-1, mouse, brain, ip, brain, 120 min, individual animals, read-out: Brain concentration, Final (individual sample)): 0 ng/g
concentration at 120 min (male, CD-1, mouse, brain, ip, brain, 120 min, mean of 3, read-out: Brain concentration C (mean)): 0 ng/g
concentration at 240 min (male, CD-1, mouse, brain, ip, brain, 240 min, individual animals, read-out: Brain concentration, Final (individual sample)): 0 ng/g
concentration at 240 min (male, CD-1, mouse, brain, ip, brain, 240 min, mean of 3, read-out: Brain concentration C (mean)): 0 ng/g
concentration at 360 min (male, CD-1, mouse, brain, ip, brain, 360 min, individual animals, read-out: Brain concentration, Final (individual sample)): 0 ng/g
concentration at 360 min (male, CD-1, mouse, brain, ip, brain, 360 min, mean of 3, read-out: Brain concentration C (mean)): 0 ng/g
concentration at 480 min (male, CD-1, mouse, brain, ip, brain, 480 min, individual animals, read-out: Brain concentration, Final (individual sample)): 0 ng/g
concentration at 480 min (male, CD-1, mouse, brain, ip, brain, 480 min, mean of 3, read-out: Brain concentration C (mean)): 0 ng/g
concentration at 1440 min (male, CD-1, mouse, brain, ip, brain, individual animals, read-out: Brain concentration, Final (individual sample)): 0 ng/g
concentration at 1440 min (male, CD-1, mouse, brain, ip, brain, mean of 3, read-out: Brain concentration C (mean)): 0 ng/g
concentration at 5 min (male, CD-1, mouse, plasma, ip, plasma, 5 min, individual animals, read-out: Plasma concentration, Final (individual sample)): 546 ng/mL
concentration at 5 min (male, CD-1, mouse, plasma, ip, plasma, 5 min, mean of 3, read-out: Plasma concentration C (mean)): 609 ng/mL
concentration at 15 min (male, CD-1, mouse, plasma, ip, plasma, 15 min, mean of 3, read-out: Plasma concentration C (mean)): 834 ng/mL
concentration at 30 min (male, CD-1, mouse, plasma, ip, plasma, 30 min, mean of 3, read-out: Plasma concentration C (mean)): 734 ng/mL
concentration at 60 min (male, CD-1, mouse, plasma, ip, plasma, 60 min, mean of 3, read-out: Plasma concentration C (mean)): 393 ng/mL
concentration at 120 min (male, CD-1, mouse, plasma, ip, plasma, 120 min, mean of 3, read-out: Plasma concentration C (mean)): 304 ng/mL
concentration at 240 min (male, CD-1, mouse, plasma, ip, plasma, 240 min, mean of 3, read-out: Plasma concentration C (mean)): 31.1 ng/mL
concentration at 360 min (male, CD-1, mouse, plasma, ip, plasma, 360 min, mean of 3, read-out: Plasma concentration C (mean)): 11.2 ng/mL
concentration at 480 min (male, CD-1, mouse, plasma, ip, plasma, 480 min, individual animals, read-out: Plasma concentration, Final (individual sample)): 0 ng/mL
concentration at 480 min (male, CD-1, mouse, plasma, ip, plasma, 480 min, mean of 3, read-out: Plasma concentration C (mean)): 0 ng/mL
concentration at 1440 min (male, CD-1, mouse, plasma, ip, plasma, individual animals, read-out: Plasma concentration, Final (individual sample)): 0 ng/mL
concentration at 1440 min (male, CD-1, mouse, plasma, ip, plasma, mean of 3, read-out: Plasma concentration C (mean)): 0 ng/mL
Cmax (male, CD-1, mouse, plasma, ip, 10 mg/kg i.p.): 834 ng/mL
AUC (male, CD-1, mouse, plasma, ip, 10 mg/kg i.p., read-out: plasma AUC (converted)): 1340 ng·h/mL
CSF concentration, Final (individual sample) (CSF, 5 min, individual animals): 0 ng/mL and 11.4 ng/mL and 16.0 ng/mL
CSF concentration, Final (individual sample) (CSF, 15 min, individual animals): 2.26 ng/mL and 1.62 ng/mL
CSF concentration, Final (individual sample) (CSF, 30 min, individual animals): 2.31 ng/mL and 1.36 ng/mL and 8.16 ng/mL
CSF concentration, Final (individual sample) (CSF, 60 min, individual animals): 1.05 ng/mL and 0 ng/mL
CSF concentration, Final (individual sample) (CSF, 120 min, individual animals): 4.07 ng/mL and 0 ng/mL
CSF concentration, Final (individual sample) (CSF, 480 min, individual animals): 1.20 ng/mL and 0 ng/mL
Brain concentration, Final (individual sample) (brain, 5 min, individual animals): 29.4 ng/g and 15.9 ng/g
Brain concentration, Final (individual sample) (brain, 15 min, individual animals): 15.1 ng/g and 20.3 ng/g and 9.28 ng/g
Brain concentration, Final (individual sample) (brain, 30 min, individual animals): 9.04 ng/g and 12.8 ng/g
Brain concentration, Final (individual sample) (brain, 60 min, individual animals): 7.24 ng/g and 0 ng/g and 12.8 ng/g
Plasma concentration, Final (individual sample) (plasma, 5 min, individual animals): 525 ng/mL and 757 ng/mL
Plasma concentration, Final (individual sample) (plasma, 15 min, individual animals): 1131 ng/mL and 825 ng/mL and 545 ng/mL
Plasma concentration, Final (individual sample) (plasma, 30 min, individual animals): 543 ng/mL and 519 ng/mL and 1140 ng/mL
Plasma concentration, Final (individual sample) (plasma, 60 min, individual animals): 539 ng/mL and 0 ng/mL and 640 ng/mL
Plasma concentration, Final (individual sample) (plasma, 120 min, individual animals): 446 ng/mL and 153 ng/mL and 313 ng/mL
Plasma concentration, Final (individual sample) (plasma, 240 min, individual animals): 33.6 ng/mL and 42.0 ng/mL and 17.7 ng/mL
Plasma concentration, Final (individual sample) (plasma, 360 min, individual animals): 0 ng/mL and 34 ng/mL
Structure (SMILES): CCc1nc2c(C)nc(C)cc2n1-c1ccc(CCNC(=O)NS(=O)(=O)c2ccc(C)cc2)cc1 [Grapiprant, reference compound]
